In article PMC10257182, “Discovery of senolytics using machine learning” (Nature Communications, 2023):
“And” between values parts separate entries of the source, which are not always exact repeats. Equal values may be shown once.

Columns and labels:
Format in all cases: cell-based, human
[1] = tested on: NOXA mRNA in IMR90 cells at passage 27; assay: NOXA mRNA expression by RT-qPCR, replicative senescence; conditions: Replicative Senescence cells, 10 nM; relative to Control DMSO = 1; individual replicate values
Protocol: (§1) Total RNA was isolated using RNAeasy kit (Quiagen). cDNA was generated with reverse transcriptase iScript (Bio-Rad). RT-qPCR was performed using SYBR Select Master Mix (Applied Biosystems) in OneStepPlus detection system (Applied Biosystems). Oligos for amplification were: NOXA Fw-[…] and Rv-[…]; b-ACTIN Fw-[…] and Rv-[…]; IL1a Fw-[…] and Rv- […]; IL1b Fw-[…] and Rv- […]; IL8 Fw-[…] and Rv-[…]; p16 Fw-CGGTCGGAGGCCGATCCAG and Rv- […]; p21Fw-[…] and Rv- […].

[2] = tested on: senescent IMR90 ER:RAS cells; assay: Cell survival assay using crystal violet staining, OIS, senescent cells; design: % Cell Survival: concentration or dose not given beside the values
Protocol: (§2) Equal numbers of control and senescent cells were plated at high density on multiwell plates just before senolytic treatment addition. After treatment, cells were fixed on 0.5% glutaraldehyde (Sigma) and then dried at RT overnight. Then, wells were stained with crystal violet solution for 3 h, washed and dried. Once they were completely dry, the plates were scanned for records. Quantification was performed extracting the staining with 1% acetic acid and measuring the final solution by absorbance at 595 nm.

control A549 cells = assay: Cell survival assay using crystal violet staining, TIS, control cells; conditions: Control (no etoposide) cells; Control DMSO = 100; single replicates (SUP FIG 9E)
Protocol: as §2, with “nm. […]” for “nm.”
(§3) cells per condition is indicated. (d) Cell survival assay measuring the senolytic effect in lung cancer senescent cells. The panels show a representative crystal violet staining of tissue culture dishes of confluent A549 cells treated with 100 μM etoposide and control A549 cells, all treated with 10 nM oleandrin, ouabain and periplocin, and DMSO as vehicle control for 72 hours as indicated. (e) Graph representing the cell survival by quantification of the crystal violet staining of the experiment described in (d), as described in Methods. Data represented as individual datapoints, and bars and error bars representing the mean ± SEM of 14 independent experiments. Statistical analysis was performed using a one-way ANOVA (Tukey’s test) for multiple comparisons. […]
(§4) Scale bars represent 100 μm. ns = not significant, * = p < 0.05, ** = p < 0.01, *** = p < 0.001, **** = p < 0.0001. Source data are provided as a Source Data file.

[3] = tested on: NOXA mRNA in senescent IMR90 ER:RAS cells; assay: NOXA mRNA expression by RT-qPCR, OIS; conditions: ER:RAS cells, 10 nM; relative to ER:STOP DMSO = 1; individual replicate values
Protocol: as §1

[4] = tested on: IMR90 cells at passage 27 (replicative senescence); assay: Cell survival assay using crystal violet staining, replicative senescence; design: % Cell Survival: concentration or dose not given beside the values; conditions: FIG 4C; Replicative Senescence (RS) cells; individual replicate values, Control DMSO = 100
Description: IMR90 (CCL-186) human foetal lung fibroblasts and A549 (CCL-185) human lung adenocarcinoma cells were obtained from the American Type Culture Collection (ATCC, Manassas, VA). The cell lines were confirmed to be mycoplasma negative (Lonza MycoAlert, cat #LT07-118). IMR90 ER:RAS is a derivative of IMR90 cells expressing a switchable version of oncogenic H-Ras[84]. IMR90 ER:RAS and A549 cells were maintained in Dulbecco’s Modified Eagle Medium (DMEM, ThermoFisher) supplemented with foetal bovine serum (10%), L-glutamine (2 mM, ThermoFisher), and antibiotic-antimycotic solution (1%, ThermoFisher) and incubated under standard tissue culture conditions (37 °C and 5% CO2). For induction of the senescent phenotype, IMR90-ER:RAS cells were cultured in hydroxytamoxifen (4-OHT) (Sigma) added media at 100 nM final concentration. IMR90 were kept in culture for over 27 passages for replicative senescence. Cells were tested for mycoplasma on a regular basis.
as §2

[5] = tested on: A549 cells treated with 100 μM etoposide; assay: Cell survival assay using crystal violet staining, TIS, senescent cells; conditions: fraction of Control DMSO = 1, n 15
[6] = tested on: Na+/K+ ATPase pump (intracellular K+) in IMR90 cells at passage 27; assay: Intracellular K+ determination with Asante staining, replicative senescence; conditions: Replicative Senescence cells
Protocol: Cells were cultured for control and senescent phenotype and then treated with the senolytics oleandrin, ouabain and periplocin at 10 nM for 72 h. Asante (Asante Potassium Green-2 AM, abcam ab142806) was added to the culture 30 min before fixation, following manufacturer instructions. DAPI staining was done before image acquisition on Nikon TI2 microscope (20x). Image analysis was performed using ImageJ 1.53k for setting intensity threshold and measuring mean intensity.

[7] = tested on: A549 cells treated with 100 μM etoposide; assay: Cell survival assay using crystal violet staining, TIS, senescent cells; conditions: Etoposide-treated (senescent) cells; Control DMSO = 100; single replicates (SUP FIG 9E)
Protocol: as §2, with “nm. […]” for “nm.”
as §3, §4

[8] = tested on: caspase 3/7 activity in senescent IMR90 ER:RAS cells; assay: Caspase 3/7 activity assay; design: Caspase 3/7 activity time course (SUP FIG 9F) / Caspase 3/7 activity time course (SUP FIG 9F exp not shown): unit not given here; conditions: for Caspase 3/7 activity time course (SUP FIG 9F) / Caspase 3/7 activity time course (SUP FIG 9F exp not shown): ER:RAS cells; for Caspase 3/7 activity time course (SUP FIG 9F exp not shown): second experiment, data not shown
Protocol: IMR90 ER:STOP and IMR90 ER:RAS cells were cultured with 100 nM 4-OHT for 5 days. Cell were then plated in a multiwell plate at high density. Once cells were attached, Caspase 3/7 probe (C10423 Invitrogen) and senolytic drugs, oleandrin, ouabain and periplocin at 10 nM, were added to the media and cultured for 36 h. Time lapse imaging was recorded every hour on a Leica AF6500 microscope (10x). ImageJ 1.53k was used for positive cell counting.

CO[C@H]1C[C@H](O[C@H]2CC[C@]3(C)[C@H]4CC[C@]5(C)[C@@H](C6=CC(=O)OC6)CC[C@]5(O)[C@@H]4CC[C@]3(O)C2)O[C@H](C)[C@H]1O[C@@H]1O[C@H](CO)[C@@H](O)[C@H](O)[C@H]1O [Periplocin, periplocin]
NOXA mRNA expression [1]: 5.65 and 6.34 and 7.72 | % Cell Survival ([2]; FIG 4B, ER:RAS cells, individual replicate values, ER:STOP DMSO = 100): 119.4% and 103.3% and 90.2% and 103.2% and 120.1% and 97.6% and 95% and 114.9% and 93.3% and 103% and 92.4% | Mean (cell survival, Tukey test details) ([2]; FIG 4B, ER:RAS cells, mean of n=12 as fraction of STOP DMSO = 1): 1.03 | cytotoxic activity / cellular content (crystal violet), in words ([2]; IMR90-ER:RAS cells undergoing OIS, 10 nM, 72 h): no cytotoxic activity | % Cell Survival (control A549 cells): 90% and 112.2% and 107.2% and 111% and 106.6% and 104.9% and 102.9% and 93.8% and 98.6% and 110.6% and 109.7% and 108.4% and 94.2% and 93.9% | NOXA mRNA expression [3]: 6.84 and 6.41 and 10.09 and 3.28 | % Cell Survival [4]: 127.6% and 99.2% and 95.4% and 100.9% and 115.7% and 129.6% and 84.9% and 94.7% and 133.6% and 88.7% and 125.7% and 118.8% | Cell survival, mean (Test details, Mean 2) [5]: 0.873 | Asante Mean intensity ([6]; individual replicate values): 152.4 and 152.1 and 153.1 and 152.9 and 152.7 | Asante Mean intensity, group mean (Test details, Mean 2) ([6]; mean of n=6): 152.6 | % Cell Survival [7]: 78.5% and 85.2% and 87.1% and 66.7% and 80.4% and 88.8% and 86.5% and 120% and 114.9% and 68.8% and 88.3% and 87.7% and 111.9% and 81.2% | Caspase 3/7 activity time course (SUP FIG 9F) ([8]; 01:00:00 hours): 1.7 | Caspase 3/7 activity time course (SUP FIG 9F exp not shown) ([8]; 01:00:00 hours): 0.05 | Caspase 3/7 activity time course (SUP FIG 9F) ([8]; 05:00:00 hours): 2 | Caspase 3/7 activity time course (SUP FIG 9F exp not shown) ([8]; 05:00:00 hours): 0.2 | Caspase 3/7 activity time course (SUP FIG 9F) ([8]; 10:00:00 hours): 2.7 | Caspase 3/7 activity time course (SUP FIG 9F exp not shown) ([8]; 10:00:00 hours): 1.2 | Caspase 3/7 activity time course (SUP FIG 9F) ([8]; 15:00:00 hours): 2.7 | Caspase 3/7 activity time course (SUP FIG 9F exp not shown) ([8]; 15:00:00 hours): 1.2 | Caspase 3/7 activity time course (SUP FIG 9F) ([8]; 20:00:00 hours): 3 | Caspase 3/7 activity time course (SUP FIG 9F exp not shown) ([8]; 20:00:00 hours): 2.55 | Caspase 3/7 activity time course (SUP FIG 9F) ([8]; 1 day, 1:00:00): 3.5 | Caspase 3/7 activity time course (SUP FIG 9F exp not shown) ([8]; 1 day, 1:00:00): 3.9 | Caspase 3/7 activity time course (SUP FIG 9F) ([8]; 1 day, 6:00:00): 4 | Caspase 3/7 activity time course (SUP FIG 9F exp not shown) ([8]; 1 day, 6:00:00): 6.15 | Caspase 3/7 activity time course (SUP FIG 9F) ([8]; 1 day, 11:00:00): 4.8 | Caspase 3/7 activity time course (SUP FIG 9F exp not shown) ([8]; 1 day, 11:00:00): 8.35 | Casp3/7 activity (percentage of green fluorescent cells) ([8]; ER:RAS, 100 nM 4OHT, 10 nM compound, 35 h): 6.2%
